{
  "source": "patent US20160318856A1",
  "about": "“Substituted Urea eIF2alpha Kinase Activators” (THE BRIGHAM AND WOMEN'S HOSPITAL, INC., priority 2013, published 2016)",
  "key": {"[1]": {"system": "eIF2α phosphorylation (eIF2•GTP•Met-tRNAi ternary complex; HRI activation)", "test": "surrogate dual luciferase eIF2α phosphorylation (ternary complex) assay", "assay_type": "cell-based, human", "conditions": "Homo sapiens; surrogate eIF2α phosphorylation assay, Table 3; read-out: Emax (F/R)", "in_short": "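Cell-based dual luciferase reporter: firefly luciferase behind the ATF-4 5′UTR (uORFs) and renilla luciferase behind a uORF-free 5′UTR, read with a dual glow kit. Activity given as firefly/renilla ratio normalised to DMSO wells set at 1, with a rising ratio reflecting reduced ternary complex (e.g., HRI activation).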"}, "[2]": {"system": "CRL-2813 human melanoma cancer cells transfected with HRI-targeting or non-targeting siRNA", "test": "cell proliferation (SRB) assay after HRI knockdown", "assay_type": "cell-based", "conditions": "CRL-2813 cells, FIG. 10", "description": "(§1) Cells were seeded in 96-well plates and maintained for 5 days in the presence of 0.5 to 20 μM of individual compound, and cell proliferation was measured by the sulforhodamine B (SRB) assay as described previously (see, for example, Palakurthi, S. S. et al. Cancer Research 2000, 60(11), 2919-2925). Briefly, at the end of a 5-day treatment, cells were fixed in 10% cold trichloroacetic acid. Cell number was estimated by measuring the remaining bound dye of sulforhodamine B after washing. The percentage of growth was calculated by using the equation: 100×[(T−T0)/(C−T0)], where T and C represent the absorbance in treated and control cultures at Day 5, and T0 at time zero, respectively. If T is less than T0, cell death has occurred and can be calculated from 100×[(T−T0)/T0].\nCell proliferation is a meaningful read-out for determining the specificity of a compound as it captures both on-target and off-target effects of the compound under study. […] If these compounds specifically activate HRI and this activity is required for the inhibition of cell proliferation, then reducing the expression of HRI should blunt their effect on cell proliferation. For this purpose, expression of HRI was knocked down in CRL-2813 human melanoma (about 70% knockdown efficiency) and MCF-7 human breast cancer cells (about 90% knockdown efficiency). These two cell lines were chosen because the HRI knockdown efficiency is lower in CRL-2813 than in MCF-7 cells providing a sort of dose-response data that correlates knockdown efficiency with the resistance of cells to inhibition of cell proliferation. […] Referring to FIG. 5A, CRL-2813 human melanoma cancer cells, and (FIG. 5B) MCF-7 human breast cancer cells were transfected with HRI targeted or non-targeted siRNA, treated with the indicated concentrations of I-6p and cell proliferation was measured by SRB assay. Calculated IC50 for all four compounds tested in CRL-2813 human melanoma cancer cells and MCF-7 human breast cancer cells transfected with non-target siRNA control (NTC) or HRI is shown in FIG. 5C and FIG. 5D, respectively. The experiment was conducted in triplicate and each experiment was independently performed three times. Data are shown as Mean±S.E.M. *NTC=non-target siRNA control.\nReferring to FIG. 8, CRL-2813 human melanoma cancer cells were transfected with HRI targeted or non-targeted siRNA, treated with the indicated concentrations of (A) I-14, (B) I-15, (C) III-4 and (D) III-5 and cell proliferation was measured by SRB assay. Calculated IC50 for all four compounds tested in CRL-2813 human melanoma cancer cells transfected with non-target siRNA control (NTC) or HRI is shown in (E). The experiment was conducted in triplicate and each experiment was independently performed three times. Data are shown as Mean±S.E.M. *NTC=non-target siRNA control, IC50=effective dose of drug that inhibit cell proliferation by 50%.\nIn general, if the affinity of compounds for their molecular target is increased this should result in higher specificity of the compounds in the cell proliferation assay. […] These five compounds, two with average and three with high potency, were tested in cell proliferation assay using CRL-2813 cells transfected with non-targeted siRNA or HRI-targeted siRNA as described above."}, "[3]": {"system": "CRL-2813 human melanoma cancer cells", "test": "cell proliferation (SRB) assay, CRL-2813", "assay_type": "cell-based", "conditions": "Homo sapiens, CRL2813", "in_short": "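Cells exposed 5 days to 0.5–20 μM compound, then TCA-fixed and stained with sulforhodamine B. Growth as 100×[(T−T0)/(C−T0)] from absorbance of treated, control and time-zero cultures; cell death as 100×[(T−T0)/T0] where T is below T0.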"}, "Huh-7": {"system": "Huh-7", "test": "cell proliferation assay, Huh-7", "assay_type": "cell-based", "conditions": "Homo sapiens; Huh-7, Liver", "description": "as §1"}, "RAMOS": {"system": "RAMOS", "test": "cell proliferation assay, RAMOS", "assay_type": "cell-based", "conditions": "Homo sapiens, Lymphoma", "description": "as §1"}},
  "note": "Like-named read-outs stand apart in the source and are kept apart here.",
  "data": [
    {"compound": "O=C(Nc1cccc(C(F)(F)F)c1)NC1CCC(Oc2ccc(OC(F)(F)F)cc2)CC1", "note": "(stereo not drawn) [Compound I-17, 1-(4-(4-(trifluoromethoxy)phenoxy)cyclohexyl)-3-(3-(trifluoromethyl)phenyl)urea]", "values": [
      {"measurement": "maximal fold induction", "setting": "[1]", "result": 15.4},
      {"measurement": "fold higher IC50 values in cells transfected with HRI-targeting siRNA vs. non-targeting siRNA", "setting": "[2]", "result": "~6", "unit": "fold"},
      {"measurement": "IC50", "setting": "[3]; CRL-2813, Table 8, Mean IC50±S.E.M., read-out: IC50 of compounds", "result": "690 ± 100", "unit": "nM"},
      {"measurement": "IC50", "setting": "[3]; cell proliferation assay, Table 3, cell line not named, values equal CRL-2813 values of Table 8, read-out: IC50", "result": "690 ± 100", "unit": "nM"},
      {"measurement": "IC50", "setting": "Huh-7", "result": 2100, "unit": "nM"},
      {"measurement": "IC50", "setting": "RAMOS", "result": 800, "unit": "nM"}
    ]}
  ]
}
